Active and inactive are the calls of the source. The rule behind the calls is not given here.
Key:
[1] = target: Sodium-dependent serotonin transporter (Homo sapiens, UniProt P31645); assay type: cell-based, JAR
Description: Inhibition of [3H]5-HT uptake at human 5-HT transporter expressed in Jar cells

[2] = target: T1, 5-hydroxytryptamine receptor 1A (Homo sapiens) (UniProt P08908); assay: Agonist activity at human 5HT1A receptor expressed in CHO cells by inhibition of […] forskolin-stimulated cAMP production relative to 5-HT; assay type: functional, cell-based
T1 sequence (whole entry): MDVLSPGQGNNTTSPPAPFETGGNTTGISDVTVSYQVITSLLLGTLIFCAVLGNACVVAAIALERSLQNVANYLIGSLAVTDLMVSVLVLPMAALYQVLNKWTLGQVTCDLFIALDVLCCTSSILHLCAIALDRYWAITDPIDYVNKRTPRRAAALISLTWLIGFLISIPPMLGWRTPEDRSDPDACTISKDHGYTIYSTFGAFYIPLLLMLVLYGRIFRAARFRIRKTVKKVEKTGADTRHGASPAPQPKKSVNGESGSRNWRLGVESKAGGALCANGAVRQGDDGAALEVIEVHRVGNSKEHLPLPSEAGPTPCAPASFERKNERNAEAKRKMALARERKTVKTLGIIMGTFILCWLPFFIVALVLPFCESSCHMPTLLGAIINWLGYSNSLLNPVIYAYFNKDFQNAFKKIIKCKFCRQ

[3] = target: Adrenergic receptor alpha-1 (Rattus norvegicus) (UniProt P15823+P23944+P43140); assay: Displacement of [3H]prazosin from alpha-1 adrenergic receptor in Sprague-Dawley rat cortical membranes at 1 uM; assay type: cell membranes; settings: Membrane
[4] = target: Sodium-dependent serotonin transporter (Rattus norvegicus, UniProt P31652)
Chain of Sodium-dependent serotonin transporter (Rattus norvegicus, UniProt P31652) (P31652 whole entry): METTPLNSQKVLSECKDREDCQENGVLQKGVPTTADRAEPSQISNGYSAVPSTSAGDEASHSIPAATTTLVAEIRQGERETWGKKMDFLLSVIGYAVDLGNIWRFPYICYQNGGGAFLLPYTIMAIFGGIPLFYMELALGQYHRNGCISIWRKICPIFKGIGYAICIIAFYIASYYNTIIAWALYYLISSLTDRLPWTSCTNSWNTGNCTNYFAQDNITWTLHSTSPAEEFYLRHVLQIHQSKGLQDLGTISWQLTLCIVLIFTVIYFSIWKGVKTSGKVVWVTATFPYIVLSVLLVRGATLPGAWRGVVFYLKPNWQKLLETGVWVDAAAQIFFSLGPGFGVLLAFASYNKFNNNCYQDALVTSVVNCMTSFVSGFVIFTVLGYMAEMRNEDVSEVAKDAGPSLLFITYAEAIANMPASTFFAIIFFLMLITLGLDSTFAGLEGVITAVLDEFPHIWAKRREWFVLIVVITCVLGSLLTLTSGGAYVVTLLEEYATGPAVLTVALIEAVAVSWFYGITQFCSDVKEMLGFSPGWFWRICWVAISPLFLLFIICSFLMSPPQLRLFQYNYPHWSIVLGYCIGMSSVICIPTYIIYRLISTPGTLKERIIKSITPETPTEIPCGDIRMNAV
Description: Displacement of [3H]paroxetine from 5-HT transporter in Sprague-Dawley rat cortical membranes

[5] = target: T2, 5-hydroxytryptamine receptor 1A (Homo sapiens, UniProt P08908); assay: biochemical
T2 sequence (P08908 whole entry): T1 sequence (whole entry)
Description: Displacement of [3H]-8-OH-DPAT from human 5HT1A receptor expressed in CHO cells

[6] = target: T3, Adrenergic receptor alpha-1 (Rattus norvegicus, UniProt P15823+P23944+P43140); assay: Displacement of [3H]prazosin from alpha-1 adrenergic receptor in Sprague-Dawley rat cortical membranes; assay type: cell membranes, Membrane
T3 sequence (P15823 whole entry): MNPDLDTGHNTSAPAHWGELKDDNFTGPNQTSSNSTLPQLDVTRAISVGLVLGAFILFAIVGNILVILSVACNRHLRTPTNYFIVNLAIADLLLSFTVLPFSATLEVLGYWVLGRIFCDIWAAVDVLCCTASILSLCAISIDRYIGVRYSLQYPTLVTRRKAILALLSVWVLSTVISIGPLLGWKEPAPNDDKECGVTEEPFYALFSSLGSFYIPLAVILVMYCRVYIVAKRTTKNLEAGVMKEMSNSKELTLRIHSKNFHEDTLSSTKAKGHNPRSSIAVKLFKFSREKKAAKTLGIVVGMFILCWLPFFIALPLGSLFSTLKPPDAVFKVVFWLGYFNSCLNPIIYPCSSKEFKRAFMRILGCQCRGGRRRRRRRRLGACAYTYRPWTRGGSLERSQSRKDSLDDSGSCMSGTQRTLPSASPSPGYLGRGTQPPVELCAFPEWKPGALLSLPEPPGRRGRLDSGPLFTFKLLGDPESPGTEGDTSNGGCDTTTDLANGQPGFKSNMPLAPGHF
T3 sequence (P23944 whole entry): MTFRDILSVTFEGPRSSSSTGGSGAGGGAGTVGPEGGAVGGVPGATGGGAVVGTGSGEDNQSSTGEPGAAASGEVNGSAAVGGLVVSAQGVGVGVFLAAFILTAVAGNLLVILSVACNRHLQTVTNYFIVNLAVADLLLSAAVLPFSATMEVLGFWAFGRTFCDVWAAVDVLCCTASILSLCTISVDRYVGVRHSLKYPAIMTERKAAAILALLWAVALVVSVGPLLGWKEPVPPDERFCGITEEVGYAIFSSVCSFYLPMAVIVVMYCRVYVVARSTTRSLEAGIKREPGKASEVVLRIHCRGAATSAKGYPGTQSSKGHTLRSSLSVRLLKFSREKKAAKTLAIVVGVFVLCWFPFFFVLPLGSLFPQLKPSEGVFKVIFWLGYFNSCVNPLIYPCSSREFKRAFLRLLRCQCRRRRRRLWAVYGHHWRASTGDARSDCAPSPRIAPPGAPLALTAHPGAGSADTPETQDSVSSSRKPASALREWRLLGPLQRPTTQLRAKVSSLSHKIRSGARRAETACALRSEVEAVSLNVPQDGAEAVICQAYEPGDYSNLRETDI
T3 sequence (P43140 whole entry): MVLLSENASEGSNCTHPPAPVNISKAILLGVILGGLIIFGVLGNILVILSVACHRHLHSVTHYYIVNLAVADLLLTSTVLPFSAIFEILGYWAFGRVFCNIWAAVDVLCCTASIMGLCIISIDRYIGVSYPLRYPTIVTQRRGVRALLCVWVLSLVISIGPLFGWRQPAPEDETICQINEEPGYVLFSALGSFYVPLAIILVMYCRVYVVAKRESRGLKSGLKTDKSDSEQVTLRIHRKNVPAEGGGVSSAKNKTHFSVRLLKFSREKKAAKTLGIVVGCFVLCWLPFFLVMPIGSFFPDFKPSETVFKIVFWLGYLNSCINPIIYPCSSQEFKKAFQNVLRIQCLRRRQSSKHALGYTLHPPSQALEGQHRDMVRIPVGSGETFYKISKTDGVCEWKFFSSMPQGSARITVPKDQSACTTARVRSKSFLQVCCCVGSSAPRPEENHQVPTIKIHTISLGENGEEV

[7] = target: T2, 5-hydroxytryptamine receptor 1A
Rattus norvegicus = assay: Increase of 5-HT levels in Sprague-Dawley rat frontal cortex at 30 mg/kg, po relative to control by microdialysis assay; assay type: functional, organism-based; design: dose 30 mg/kg

Chain of Sodium-dependent serotonin transporter (Homo sapiens, UniProt P31645) (P31645 whole entry): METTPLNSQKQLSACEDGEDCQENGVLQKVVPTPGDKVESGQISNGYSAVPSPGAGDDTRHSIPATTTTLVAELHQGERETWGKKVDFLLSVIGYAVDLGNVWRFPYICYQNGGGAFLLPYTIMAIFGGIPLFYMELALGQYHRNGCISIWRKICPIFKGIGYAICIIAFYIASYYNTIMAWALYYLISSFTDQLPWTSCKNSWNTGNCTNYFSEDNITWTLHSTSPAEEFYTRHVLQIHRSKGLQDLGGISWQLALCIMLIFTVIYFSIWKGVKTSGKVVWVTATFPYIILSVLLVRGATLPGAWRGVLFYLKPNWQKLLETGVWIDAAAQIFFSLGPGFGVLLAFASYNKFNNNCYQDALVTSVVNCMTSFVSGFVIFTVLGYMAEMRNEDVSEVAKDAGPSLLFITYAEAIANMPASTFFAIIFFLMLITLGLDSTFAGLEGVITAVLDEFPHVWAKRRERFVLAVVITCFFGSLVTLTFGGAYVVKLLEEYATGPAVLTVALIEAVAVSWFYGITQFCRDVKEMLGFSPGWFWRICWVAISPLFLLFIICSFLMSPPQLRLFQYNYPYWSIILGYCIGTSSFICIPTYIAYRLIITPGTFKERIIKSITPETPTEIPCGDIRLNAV

| IC50 [1] [nM] | Emax [2] [%] | inhibition [3] [%] | Ki [4] [nM] | Ki [5] [nM] | Ki [6] [nM] | IC50 [7] [nM] | SMILES | Activity (Rattus norvegicus) |
| --- | --- | --- | --- | --- | --- | --- | --- | --- |
| 59.7 |  |  | 3.9 |  | 2023 |  | NC(=O)c1ccc(F)c2c1C[C@@H](N(CCCc1c[nH]c3ccc(F)cc13)CC1CC1)CO2 |  |
| 300 |  |  | 10.4 |  | 645 | 24 | NC(=O)c1ccc(F)c2c1CC(N(CCCCc1c[nH]c3ccc(F)cc13)C1CCC1)CO2 (racemic) |  |
| 24.1 |  |  | 0.4 | 330 | 328 | > 1000 | CCN(CCCCc1c[nH]c2ccc(F)cc12)C1COc2c(F)ccc(C(N)=O)c2C1 (racemic) |  |
| 53.5 |  | 32 | 3.5 |  |  |  | NC(=O)c1ccc(F)c2c1CC(N(CCCc1c[nH]c3ccc(F)cc13)CC1CC1)CO2 (racemic) |  |
| 17.4 |  |  | 5.3 |  |  |  | NC(=O)c1ccc(F)c2c1C[C@H](N(CCCc1c[nH]c3ccc(F)cc13)C1CCC1)CO2 |  |
| 82.4 |  |  | 3.3 | 2.1 | 506 |  | NC(=O)c1ccc(F)c2c1CC(N(CCCCc1c[nH]c3ccc(F)cc13)CC1CC1)CO2 (racemic) |  |
| 25.2 |  | 16 | 3 |  |  |  | NC(=O)c1ccc(F)c2c1CC(N(CCCc1c[nH]c3ccc(F)cc13)C1CCC1)CO2 (racemic) |  |
| 18.7 |  | 21 | 1.5 |  |  |  | NC(=O)c1ccc(F)c2c1C[C@@H](N(CCCc1c[nH]c3ccc(F)cc13)C1CCC1)CO2 | Active |
| 36.3 | 69 | 26 | 4.2 |  |  |  | NC(=O)c1ccc(F)c2c1C[C@H](N(CCCc1c[nH]c3ccc(F)cc13)CC1CC1)CO2 |  |

The next lines start with the compound.

| SMILES | IC50 [1] [nM] | Emax [2] [%] | inhibition [3] [%] | Ki [4] [nM] | Ki [5] [nM] | Ki [6] [nM] | IC50 [7] [nM] | Activity (Rattus norvegicus) |
| --- | --- | --- | --- | --- | --- | --- | --- | --- |
| CCCN(CCCc1c[nH]c2ccc(F)cc12)[C@@H]1COc2c(F)ccc(C(N)=O)c2C1 | 59.9 | 97 | 46 | 4.7 | 3.2 |  |  |  |
| CCCN(CCCc1c[nH]c2ccc(F)cc12)C1COc2cccc(OC)c2C1 (racemic) | 386 | 80 |  |  |  | 820 |  |  |
| CCN(CCCc1c[nH]c2ccc(F)cc12)C1COc2cccc(OC)c2C1 (racemic) | 64 | 96 |  |  | 2.3 | 207 |  |  |
| NC(=O)c1ccc(F)c2c1C[C@@H](NCCCc1c[nH]c3ccc(F)cc13)CO2 | 197 | 85 | 21 | 20.4 | 45.2 |  |  |  |
| CCN(CCCc1c[nH]c2ccc(F)cc12)[C@@H]1COc2c(F)ccc(C(N)=O)c2C1 | 37.3 | 91 |  | 3.6 | 18.6 | 545 |  |  |
| COc1cccc2c1CC(N(CCCc1c[nH]c3ccc(F)cc13)CC1CC1)CO2 (racemic) | 42.6 | 91 | 44 |  |  |  |  |  |
| NC(=O)c1ccc(F)c2c1CC(N(CCc1c[nH]c3ccc(F)cc13)CC1CC1)CO2 (racemic) | > 1000 |  |  | 97.8 | 7.3 | 636 |  |  |
| CN(CCCc1c[nH]c2ccc(F)cc12)[C@H]1COc2c(F)ccc(C(N)=O)c2C1 | 116 |  | 37 | 14.8 | 266 |  |  |  |
| CCCN(CCCCc1c[nH]c2ccc(F)cc12)C1COc2c(F)ccc(C(N)=O)c2C1 (racemic) | 217 |  |  | 12.2 | 4.4 | 494 |  |  |
| CCN(CCc1c[nH]c2ccc(F)cc12)C1COc2c(F)ccc(C(N)=O)c2C1 (racemic) | 883 |  |  | 60.2 | 33.2 | 416 |  |  |
| COc1cccc2c1CC(N(CCCc1c[nH]c3ccc(F)cc13)C1CCC1)CO2 (racemic) | 400 | 37 | 15 |  |  |  |  |  |
| CCN(CCCc1c[nH]c2ccc(F)cc12)[C@H]1COc2c(F)ccc(C(N)=O)c2C1 | 42.7 |  |  | 3.4 | 34.9 | 640 | 135 |  |
| COc1cccc2c1C[C@@H](N(CCCc1c[nH]c3ccc(F)cc13)C1CCC1)CO2 | 732 |  | 15 |  |  |  | 23 |  |
| CCCN(CCc1c[nH]c2ccc(F)cc12)C1COc2c(F)ccc(C(N)=O)c2C1 (racemic) | > 1000 |  |  | 88 | 17.6 | 484 |  |  |
| CCCN(CCCc1c[nH]c2ccc(F)cc12)[C@H]1COc2c(F)ccc(C(N)=O)c2C1 | 181 | 78 |  | 8 | 1.5 | 1150 |  |  |
| CCCN(CCCc1c[nH]c2ccc(F)cc12)C1COc2c(F)ccc(C(N)=O)c2C1 (racemic) | 128 | 84 |  | 7.1 | 3.5 |  |  |  |
| COc1cccc2c1CC(N(C)CCCc1c[nH]c3ccc(F)cc13)CO2 (racemic) | 15 | 91 |  |  |  | 610 |  |  |
